The record followed here is patent US20170035806A1, “COMPOSITION FOR PROPHYLAXIS AND TREATMENT OF BONE DISORDERS” (Chemische Fabrik Budenheim KG, priority 2014, published 2017).

Assay type in all cases: cell-based, Human
Data set [1] relates to SaOS-2 cells. Put plainly: Number of SaOS-2 cells per well (FIG. 3). As to conditions: for effect on number of SaOS-2 cells per well: polyP 50 μM where present. On the procedure: Only at a very high concentration, LaCl3 caused a strong drop of SaOS-2 cell number.
(§1) Human osteogenic sarcoma SaOS-2 cells are cultured in McCoy's medium (Biochrom, Berlin; Germany) containing 5 mM Na-phosphate and 1 mM CaCl2, supplemented with 15% heat inactivated fetal calf serum (FCS), Na-pyruvate (1 mM), Ca(NO3)2 (0.5 mM), penicillin (100 U/ml), and streptomycin (100 μg/ml), in 6-well plates (surface area 9.46 cm^2; Orange Scientifique, Braine-l'Alleud; Belgium) in a humidified incubator at 37° C. and 5% CO2. Routinely, 2×10^4 cells are added per well (total volume 3 ml).

For data set [2], the system named is SaOS-2 cells. Put plainly: HA mineralization with LaCl3 / polyP, Alizarin Red S OD 570 nm (FIG. 5, 6). On the procedure: The cells were grown for 4 days in the absence of the activation cocktail (AC) and then for further 7 days (i) in the absence or (ii) in the presence of the activation cocktail with increasing concentrations of LaCl3 without (A) or with (B) 50 μM polyP (polyP•La complex). At the end of the incubation period, HA mineralization was determined by incubation of the cultures with Alizarin Red S in the spectrophotometric assay. […] The OD values at 570 nm measured in the spectrophotometric assay in the absence of the activation cocktail had been subtracted from the OD values at 570 nm measured in the presence of the activation cocktail, and the HA formation in the absence of LaCl3 and polyP (FIG. 5 A) was set to 100%.
The data shown in FIG. 5 had been normalized by the number of cells which had been determined in parallel assays. […] The HA formation in the absence of LaCl3 and polyP (FIG. 6 A) was set to 100%.
Similar results were obtained if the values were normalized by cell number (FIG. 6).

Data set [3] concerns SaOS-2 cells. Put plainly: SEM analysis of HA nodules. The following applies: 5 μM, activated cultures, 5 days. On the procedure:
In this assay Me was Gd. 5 μM of each compound were added to the cells, and the cells were analysed by SEM. The cell cultures were incubated for 5 days either (A) in the absence or (B) in the presence of the activation cocktail. (C) and (F) show incubation of the activated cells with MeCl3; (D) and (G) show incubation of the activated cells with polyP, and (E) and (H) show incubation of the activated cells with polyP•Me. Some nodules (no) and cell layers (c) are marked.
To assure that the increased Alizarin Red S staining is due to a higher HA (Ca-phosphate) deposition SEM analyses were performed. In the absence of the activation cocktail no nodules could be identified on the cells (FIG. 7A). In contrast, if the cells were incubated with the cocktail for 5 days, distinct HA nodules could be identified (FIG. 7B). In the presence of the activation cocktail the cultures were incubated with MeCl3 (FIG. 7C), polyP (FIG. 7D), or both components together, as polyP•Me (FIG. 7E). It is apparent that the density of the nodules in activated cultures incubated with MeCl3 or with polyP alone was lower, compared to polyP•Me. At higher magnification it could be observed that the nodules consisted of irregularly arranged prism-like nanorods (FIGS. 7F to H). […]

The subject of data set [4] is SaOS-2 cells. Kind of data set: HA mineralization, Alizarin Red S staining and spectrophotometric assay (FIG. 4). As to conditions: 5 μM, Me = Gd. Here is the method: In this assay Me was Gd. The cells were incubated with 5 μM of each of the compounds. FIG. 4 A: The cells were grown for 7 d in the (a) absence or (b) presence of activation cocktail (AC=50 μM ascorbic acid, 10 nM dexamethasone and 1 mM β-glycerophosphate). In separate experiments the cultures were incubated with the activation cocktail and additionally with (c) MeCl3, (d) polyP, or (e) polyP•Me. After incubation, the cell assays were stained with Alizarin Red S to assess the degree of […]. The diameter of the wells was 15 mm. FIG. 4 B: To quantitatively determine the HA mineralization in SaOS-2 cells, the cultures were assayed at the end of the incubation with Alizarin Red S (AR) in the spectrophotometric assay. […]
The intensity of the Alizarin Red colorimetric reaction at the used concentration range is proportional to the extent of mineralization (HA formation), as determined by using a calibration curve. The values measured (given in nmoles of Alizarin Red S bound) were normalized to the total amount of DNA (given in μg) which is proportional to cell number (the amount of DNA per cell is assumed to remain constant during the experiment). […]
The influence of trivalent cations on the extent of mineralization of SaOS-2 cells was determined in vitro using McCoy's medium/10% FCS and applying Alizarin Red S as a dye to monitor HA formation. […]

The test system of the next data set is BMP2. Kind of data set: qRT-PCR BMP2 gene expression. As to conditions: 5 μM. (In general: Real-time PCR tracks product formation cycle by cycle.)
The subject of data set [5] is SaOS-2 cells. Put plainly: MTT colorimetric proliferation/viability assay. As to conditions: tested concentration range of 0.3 to 30 μM; Me = Gd. On the procedure:
In this assay Me was Gd. The recordings of developed formazan dye in the control (filled bar) were set to 100%. The results are expressed as means (n=10 experiments each)±SEM.
The effects of polyP•Me as well as of the single components polyP and MeCl3 on proliferation/viability of SaOS-2 cells were determined by applying the MMT colorimetric assay (MMT=3-(4,5-dimethylthiazol-2-yl)-2,5-diphenyltetrazolium bromide).
as §1
SaOS-2 cells are seeded at a density of 2×10^4 cells per 3-ml well in a 24-multi-well plate (Orange Scientifique) and cultured for 3 days in McCoy's medium/15% FCS. Increasing concentrations of MeCl3, polyP or polyP•Me are added to the cultures. After incubation, cell proliferation is determined applying the colorimetric method based on the tetrazolium salt […].

Molecules are shown by their SMILES.

On to `[Cl][Al]([Cl])[Cl]` [AlCl3], for which the “effect on number of SaOS-2 cells per well” value in the data set on SaOS-2 cells [1] (0.1 mM AlCl3 and higher) is listed as “strong reduction”.
For the compound `[Cl][La]([Cl])[Cl]` [LaCl3], in the data set with SaOS-2 cells [2] (0.05 mM LaCl3, absence of polyP, activation cocktail 7 days), the HA formation result is given as “marked increase”. In the data set on SaOS-2 cells [2] (LaCl3 0.5 mM and higher, absence of polyP), the “stimulatory effect on HA formation” value was “not observed any more”. Also, in the data set on SaOS-2 cells [1] (0.05 mM to 1 mM LaCl3), the “effect on number of SaOS-2 cells per well” value is given as “did not significantly affect”. Moreover, the “effect on SaOS-2 cell number” value in the data set with SaOS-2 cells [1] (very high concentration of LaCl3) is “strong drop”.
As to `[Cl][Gd]([Cl])[Cl]` [MeCl3, GdCl3], the “density of HA nodules compared to polyP•Me” value in the data set on SaOS-2 cells [3] was “lower”. Besides, the “Alizarin Red S bound normalized to total DNA (HA mineralization)” value with SaOS-2 cells [4] (7 days after the addition of the activation cocktail) was 0.61 ± 0.08 nmol/µg. Further, the “Alizarin Red S staining intensity / HA formation” value in the data set on SaOS-2 cells [4] (in the presence of the activation cocktail, 7 d) is listed as “intensified the staining intensity”. Moreover, in the data set on BMP2 (7 days), the “BMP2 expression level versus day 5” value is recorded as “remained unchanged”. Further, the “increase in steady-state expression of BMP2” value in the data set on BMP2 (day 5, normalized to GAPDH) amounted to 1.4 fold. In the data set on SaOS-2 cells [5], the “viability/proliferation of SaOS-2 cells (development of the dye formazan)” value is listed as “did not change”.
